Assay results: ChEMBL document CHEMBL1158913, “Peroxy Aliphatic Esters from the Sponge Plakortis lita” (1990)

Tested on: P388
Experiment: Cytotoxicity against mouse P388 cells
Format: functional
Details: read-out: ED50 (the source's name)

C/C=C/C=C/CCCCCCCCCCC[C@]1(OC)C=C[C@H](CC(=O)OC)OO1
EC50: > 10 µg/mL

CCCCCCCCCCCCCCCC[C@@]1(OC)C=C[C@@H](CC(=O)OC)OO1 [CHONDRILLIN]
EC50: > 10 µg/mL
